Test results published in ChEMBL document CHEMBL1148473, “Sabadinine: a potential non-peptide anti-severe acute-respiratory-syndrome agent identified using structure-aided design” (J Med Chem, 2004).
The source made the active and inactive calls. The rule behind the calls is not given here.

Columns and labels:
Homo sapiens = species: Homo sapiens; experiment: Compound was tested for inhibition of a proteinase 3CL pro of human coronavirus; Inhibited
[1] = system: Murine hepatitis virus strain A59; experiment: Evaluated for cellular toxicity against mouse hepatitis virus strain A59 up to 100 uM, Not toxic; assay type: functional, organism-based
Coronaviridae = experiment: Evaluated for effect on murine coronavirus replication; No effect; assay type: functional, organism-based

For CC1CCC2N(C1)CC1[C@](O)(C(O)C[C@@]3(O)C4CCC5C6(O)OC4(C[C@@]13O)C5(C)CCC6O)[C@]2(C)O (stereo partly drawn), the Activity (Homo sapiens) was “Inhibited”, the Activity [1] was “Not toxic” and the Activity (Coronaviridae) was “inactive”.
